Source: ChEMBL document CHEMBL4321872, “Engineering a Potent, Long-Acting, and Periphery-Restricted Oxytocin Receptor Agonist with Anorexigenic and Body Weight Reducing Effects” (J Med Chem, 2020)
The source made the active and inactive calls. The rule behind the calls is not given here. Numbered stars: 1 amine (or outer) side, 2 acyl side, 3 side chain; on linkers, the order of the positions; unused ones are H or OH. Bridge positions count the residues as written; N and C are the ends. Square brackets hold non-standard residues; d marks the D form. Side chains are listed from the residue outwards. Peptide text beside a SMILES is read from it. * marks the point of attachment. X1 = O=C(O)CCCCCCCCCCCCCCCCC(=O)N[C@@H](CCCCNC(=O)CCOCCOCCNC(=O)CCOCCOCCNC(=O)C*)C(=O)O; PEG8 = NCCOCCOCCOCCOCCOCCOCCOCCOCCC(=O)O; X3 = CCCCCCCCCCCCCC(=O)NCCOCCOCCNC(=O)C*; Palmitoyl = CCCCCCCCCCCCCCCC(=O)*; X2 = O=C(CCC[*:2])[*:1]; Sar = CNCC(=O)O; Cam = NC(=O)C*

Tests used:
[1] = Half life in C57BL/6J mouse at 20 mg/kg, sc by LC-MS/MS analysis; format: ADME, organism-based; conditions: in vivo
[2] = target: T1, Oxytocin receptor (Homo sapiens, UniProt P30559); assay: Agonist activity at recombinant human Gi/Go-coupled OTR expressed in CHOK1 cells assessed as induction of beta-arrestin recruitment measured after 90 mins in presence of 10% FBS by pathhunter assay; format: cell-based
T1 sequence (P30559 whole entry): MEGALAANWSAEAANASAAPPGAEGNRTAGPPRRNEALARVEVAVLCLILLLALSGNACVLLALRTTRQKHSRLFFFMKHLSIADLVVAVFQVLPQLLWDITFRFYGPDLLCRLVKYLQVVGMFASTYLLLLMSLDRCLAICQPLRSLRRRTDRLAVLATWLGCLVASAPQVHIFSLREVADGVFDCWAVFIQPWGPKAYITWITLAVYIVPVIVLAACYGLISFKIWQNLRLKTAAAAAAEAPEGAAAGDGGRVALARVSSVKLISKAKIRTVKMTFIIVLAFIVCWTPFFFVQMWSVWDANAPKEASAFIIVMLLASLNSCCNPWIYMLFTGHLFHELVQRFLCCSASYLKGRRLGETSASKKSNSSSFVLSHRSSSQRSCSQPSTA

[3] = target: T2, Oxytocin receptor (Homo sapiens) (UniProt P30559); assay: Agonist activity at recombinant human Gi/Go-coupled OTR expressed in CHOK1 cells assessed as induction of beta-arrestin recruitment measured after 90 mins in presence of 10% FBS by pathhunter assay relative to oxytocin; format: cell-based
T2 sequence (whole entry): T1 sequence (P30559 whole entry)

[4] = target: T1, Oxytocin receptor; assay: Agonist activity at recombinant human Gi/Go-coupled OTR expressed in CHOK1 cells assessed as induction of beta-arrestin recruitment measured after 90 mins in absence of 10% FBS by pathhunter assay; format: cell-based
[5] = target: T2, Oxytocin receptor (Homo sapiens); assay: Agonist activity at recombinant human Gi/Go-coupled OTR expressed in CHOK1 cells assessed as induction of beta-arrestin recruitment measured after 90 mins in absence of 10% FBS by pathhunter assay relative to oxytocin; format: cell-based
[6] = target: T2, Oxytocin receptor (Homo sapiens); assay: Ratio of EC50 for agonist activity at recombinant human Gi/Go-coupled OTR expressed in CHOK1 cells in presence of 10% FBS to EC50 for agonist activity at recombinant human Gi/Go-coupled OTR expressed in CHOK1 cells in absence of 10% FBS; format: cell-based
[7] = Aqueous solubility of the compound; format: physicochemical; conditions: buffer
[8] = target: Vasopressin V2 receptor (Homo sapiens, UniProt P30518); assay: Agonist activity at recombinant human V2 receptor expressed in CHOK1 cells assessed as increase in cAMP level measured after 30 mins by HTRF assay; format: cell-based
Sequence of Vasopressin V2 receptor (P30518 whole entry): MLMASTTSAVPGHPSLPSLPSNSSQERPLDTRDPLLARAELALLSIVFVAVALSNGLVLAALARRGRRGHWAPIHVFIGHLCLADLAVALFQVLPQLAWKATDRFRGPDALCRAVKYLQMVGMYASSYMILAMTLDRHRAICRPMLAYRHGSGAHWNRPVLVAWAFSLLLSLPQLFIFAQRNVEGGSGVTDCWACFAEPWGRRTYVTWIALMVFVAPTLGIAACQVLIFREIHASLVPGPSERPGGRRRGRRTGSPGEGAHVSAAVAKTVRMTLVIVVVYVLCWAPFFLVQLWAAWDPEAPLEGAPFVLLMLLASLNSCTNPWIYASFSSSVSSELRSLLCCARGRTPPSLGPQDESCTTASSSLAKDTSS

[9] = Tmax in C57BL/6 mouse plasma at 1 mg/kg, sc by LC-MS analysis; format: ADME, organism-based
[10] = Terminal half life in C57BL/6 mouse plasma at 1 mg/kg, sc by LC-MS analysis; format: ADME, organism-based; conditions: read-out: beta t1/2 (converted)
[11] = Cmax in C57BL/6 mouse plasma at 1 mg/kg, sc by LC-MS analysis; format: ADME, organism-based; design: dose 1 mg/kg, route subcutaneous
[12] = AUC (0 to last) in C57BL/6 mouse plasma at 1 mg/kg, sc by LC-MS analysis; format: ADME, organism-based; design: dose 1 mg/kg, time 0 - last, route subcutaneous
[13] = Drug level in C57BL/6 mouse at 1 mg/kg, sc measured after 24 hrs by LC-MS analysis; format: ADME, organism-based; conditions: in vivo, read-out: Drug uptake
[14] = Ratio of drug level in brain to plasma in C57BL/6 mouse at 1 mg/kg, sc measured after 7 hrs by LC-MS analysis; format: ADME, organism-based; conditions: read-out: BPR
[15] = tested on: Mus musculus; assay: Anorexigenic activity in C57BL/6J mouse assessed as reduction in food intake at 0.1 mg/kg, sc measured at 3 hrs interval for 24 hrs; format: functional, organism-based
[16] = tested on: Mus musculus; assay: Anorexigenic activity in C57BL/6J mouse assessed as reduction in body weight at 0.1 mg/kg, sc measured daily for 2 days; format: functional, organism-based
[17] = tested on: Mus musculus; assay: Anorexigenic activity in sc dosed C57BL/6J mouse […] model assessed as reduction in food intake administered once daily for 9 days and measured daily during compound dosing; format: functional, organism-based
[18] = tested on: Mus musculus; assay: Anorexigenic activity in sc dosed C57BL/6J mouse […] model assessed as reduction in body weight administered once daily for 9 days and measured daily during compound dosing; format: functional, organism-based

For CCCCCCCCCCCCCCCC(=O)NCCOCCOCCOCCOCCOCCOCCOCCOCCC(=O)NCCCC[C@H](NC(=O)CNC(=O)[C@@H]1CSSC[C@H](N)C(=O)N[C@@H](Cc2ccc(O)cc2)C(=O)N[C@@H]([C@@H](C)CC)C(=O)N[C@@H](CCC(N)=O)C(=O)N[C@@H](CC(N)=O)C(=O)N1)C(=O)NCC(N)=O (H-CYIQNCGK([PEG8-Palmitoyl])G-NH2; disulfide 1-6), the half-life [1] was 20 h.

CC(C)C[C@H](NC(=O)[C@@H]1CCCN1C(=O)[C@@H]1CSCCCC(=O)N[C@@H](Cc2ccc(O)cc2)C(=O)N[C@@H](CSCC(N)=O)C(=O)N[C@@H](CCC(N)=O)C(=O)N[C@@H](CC(N)=O)C(=O)N1)C(=O)NCC(N)=O (YC(Cam)QNCPLG-NH2; linker N-5 via X2) showed an EC50 [2] greater than 1000 nM and a %max [3] of 2%.

In the case of CCCCCCCCCCCCCC(=O)NCCOCCOCCNC(=O)CSC[C@@H]1NC(=O)[C@H](Cc2ccc(O)cc2)NC(=O)CCCSC[C@@H](C(=O)N2CCC[C@H]2C(=O)N[C@@H](CC(C)C)C(=O)NCC(N)=O)NC(=O)[C@H](CC(N)=O)NC(=O)[C@H](CCC(N)=O)NC1=O (YC(X3)QNCPLG-NH2; linker N-5 via X2), the EC50 [2] is reported as greater than 1000 nM and the %max [3] is reported as 2.3%.

With CC[C@H](C)[C@@H]1NC(=O)[C@H](Cc2ccc(O)cc2)NC(=O)CCCSC[C@@H](C(=O)N2CCC[C@H]2C(=O)N[C@@H](CC(C)C)C(=O)NCC(N)=O)NC(=O)[C@H](CC(N)=O)NC(=O)[C@H](CSCC(N)=O)NC1=O (YIC(Cam)NCPLG-NH2; linker N-5 via X2) the EC50 [2] was 14.4 nM and the %max [3] was 47%.

CCCCCCCCCCCCCC(=O)NCCOCCOCCNC(=O)CSC[C@@H]1NC(=O)[C@H]([C@@H](C)CC)NC(=O)[C@H](Cc2ccc(O)cc2)NC(=O)CCCSC[C@@H](C(=O)N2CCC[C@H]2C(=O)N[C@@H](CC(C)C)C(=O)NCC(N)=O)NC(=O)[C@H](CC(N)=O)NC1=O (YIC(X3)NCPLG-NH2; linker N-5 via X2) gave an EC50 [2] greater than 1000 nM and a %max [3] of 5.8%.

With CC[C@H](C)[C@@H]1NC(=O)[C@H](Cc2ccc(O)cc2)NC(=O)CCCSC[C@@H](C(=O)NCC(=O)N[C@@H](CSCC(=O)NCCOCCOCCC(=O)NCCOCCOCCC(=O)NCCCC[C@H](NC(=O)CCCCCCCCCCCCCCCCC(=O)O)C(=O)O)C(=O)NCC(N)=O)NC(=O)[C@H](CC(N)=O)NC(=O)[C@H](CCC(N)=O)NC1=O (YIQNCGC(X1)G-NH2; linker N-5 via X2) the EC50 [2] was 193 nM, the EC50 [4] was 2.58 nM and the %max [5] was 125%. The Ratio EC50 [6] was 74.7, the solubility [7] was “Soluble” and the EC50 [8] was 1800 nM. The Tmax [9] was 7 h, the half-life [10] was 24.2 h and the Cmax [11] was 9110 ng/mL. It also gave an AUC(0-t) [12] of 350 µg·h/mL, a concentration at 24 h [13] greater than 850 nM and a Kp at 7 h [14] of 0.005. For the same compound, the Activity [15] was “Active”, the Activity [16] was “Active” and the Activity [17] was “Dose-dependent effect”. For the same compound, the Activity [18] was “Dose-dependent effect”.

For CC[C@H](C)[C@@H]1NC(=O)[C@H](Cc2ccc(O)cc2)NC(=O)CCCSC[C@@H](C(=O)NCC(=O)N[C@@H](CSCC(=O)NCCOCCOCCC(=O)NCCOCCOCCC(=O)NCCCC[C@H](NC(=O)CCCCCCCCCCCCCCCCC(=O)O)C(=O)O)C(=O)N(C)CC(N)=O)NC(=O)[C@H](CC(N)=O)NC(=O)[C@H](CCC(N)=O)NC1=O (YIQNCGC(X1)[Sar]-NH2; linker N-5 via X2), the EC50 [2] was 464 nM, the EC50 [4] was 65.5 nM and the %max [5] was 50%. The Ratio EC50 [6] was 7.08.
